Values joined by “and” are separate entries in the source; they are usually repeats but may differ in a detail not shown here. Equal values may be shown once.
Legend:
[1] = cited from earlier work
[2] = Distribution of radioactive drug in various organs and tissues of tumor-bearing rats (γ-counter); assay type: in vivo, male Buffalo rats; conditions: I/V
Protocol: To measure the distribution of radioactive drug in various organs and tissues, the solution of […] in saline buffer was injected I/V into 3 male Buffalo rats. […] The radioactivity of samples was measured by γ-counter and corrected for weight and the time of decay.
Results from 3 animals are shown.

[3] = system: hypoxic Q7 tumor (Morris 7777 hepatoma); test: PET analysis of a tumor-bearing rat treated with [18F]-EF5; assay type: in vivo, male Buffalo rats; conditions: rat bearing Q7 tumor in the leg, 150 minutes post injection
Protocol: The dark spot on the right side of the image represents a tumor and the dark spot in the middle of the image represents a bladder.
FIG. 3 illustrates a PET image of a tumor-bearing rat treated with 18-F-labeled EF5, 150 minutes post injection. The dark spot in the right side of the image represents the tumor and the dark spot in the middle of the image represents the bladder.
Q7 cells were obtained from the American Type Culture Collection (ATCC). They were maintained in exponential growth by transfers at 3.5 day intervals with standard culture conditions. Growth medium was Eagle's NEM supplemented with 15% fetal calf serum and standard penicillin and streptomycin.
All animal studies conformed to the regulations of the University of Pennsylvania Institutional Animal Care and Use Committee. Male Buffalo rats (Harlan Sprague Dawley, Indianapolis, Ind., USA) were used for all studies. Donor tumors were created by injecting 1 million Q7 cells subcutaneously into the thigh region. The average growth time to achieve a 1 cm diameter tumor was 21 days. Tumors of less than 2 g were used in the experiments.

[4] = multiple radioactive products distinct from parent drug following renal clearance; cited from earlier work
[5] = system: hypoxic tumors; conditions: in vivo; cited from earlier work

For `O=C(Cn1ccnc1[N+](=O)[O-])NCC(F)(F)C(F)(F)F` [EF5, 2-(2-nitro-1H-imidazol-1-yl)-N-(2,2,3,3,3-pentafluoropropyl)acetamide], the “Drug stability in vivo” value [1] is listed as “high drug stability in vivo” and the Blood-brain barrier passage ([1]; in vivo) is listed as “ability to cross blood-brain barrier”.

With `O=C(Cn1ccnc1[N+](=O)[O-])NCC(F)(F)C(F)(F)F` [[^18F]-EF5, [^18F]-2-(2-Nitro-1H-imidazol-1-yl)-N-(2,2,3,3,3-pentafluoropropyl)-acetamide] the “Tissue distribution of [^18F]-EF5 in rats bearing tumors” value (“Tissue distribution of [^18F]-EF5” for short) ([2]; Blood, 3 hrs) was 0.260 % dose/gram and 0.279 % dose/gram, the “Tissue distribution of [^18F]-EF5” value ([2]; Bone, 3 hrs) was 0.040 % dose/gram and 0.079 % dose/gram and the “Tissue distribution of [^18F]-EF5” value ([2]; Bone, 4 hrs) was 0.071 % dose/gram. For the same molecule, the “Tissue distribution of [^18F]-EF5” value ([2]; Brain, 3 hrs) was 0.116 % dose/gram and 0.176 % dose/gram, the “Tissue distribution of [^18F]-EF5” value ([2]; Brain, 4 hrs) was 0.150 % dose/gram and the “Tissue distribution of [^18F]-EF5” value ([2]; Heart, 3 hrs) was 0.209 % dose/gram and 0.318 % dose/gram. For the same molecule, the “Tissue distribution of [^18F]-EF5” value ([2]; Heart) was 0.277 % dose/gram, the “Tissue distribution of [^18F]-EF5” value ([2]; Intestine, 3 hrs) was 0.410 % dose/gram and 0.477 % dose/gram and the “Tissue distribution of [^18F]-EF5” value ([2]; Intestine, 4 hrs) was 0.376 % dose/gram. The “Tissue distribution of [^18F]-EF5” value ([2]; Kidney, 3 hrs) was 0.510 % dose/gram and 0.650 % dose/gram, the “Tissue distribution of [^18F]-EF5” value ([2]; Kidney, 4 hrs) was 0.500 % dose/gram and the “Tissue distribution of [^18F]-EF5” value ([2]; Liver, 3 hrs) was 0.399 % dose/gram and 0.578 % dose/gram. The “Tissue distribution of [^18F]-EF5” value ([2]; Liver, 4 hrs) was 0.489 % dose/gram, the “Tissue distribution of [^18F]-EF5” value ([2]; Lung, 3 hrs) was 0.217 % dose/gram and 0.357 % dose/gram and the “Tissue distribution of [^18F]-EF5” value ([2]; Lung, 4 hrs) was 0.326 % dose/gram. For the same molecule, the “Tissue distribution of [^18F]-EF5” value ([2]; Muscle, 3 hrs) was 0.162 % dose/gram and 0.246 % dose/gram, the “Tissue distribution of [^18F]-EF5” value ([2]; Muscle, 4 hrs) was 0.187 % dose/gram and the “Tissue distribution of [^18F]-EF5” value ([2]; Spleen, 3 hrs) was 0.192 % dose/gram and 0.294 % dose/gram. The “Tissue distribution of [^18F]-EF5” value ([2]; Spleen, 4 hrs) was 0.242 % dose/gram and the “Visibility of the tumor in the PET image” value [3] was “clearly visible”.

In the case of `O=[N+]([O-])c1nccn1CC(O)C[18F]` (stereo not shown) [[^18F]-fluoromisonidazole], the Stability in vivo [4] is given as “not stable in vivo”.

In the case of `O=C(Cn1ccnc1[N+](=O)[O-])NCCCF` [[^18F]-EF1], the Biodistribution [5] is listed as “relatively uniform biodistribution limited by slow equilibration with brain tissue” and the “Labeling of hypoxic tumors” value [5] is listed as “good potential for labeling of hypoxic tumors”.

— US7432295B2, “Preparation of compounds useful for the detection of hypoxia” (The Trustees of The University of Pennsylvania, priority 1999, dated 2008)
